From ChEMBL document CHEMBL1255215, “Synthesis and selective anticancer activity of organochalcogen based redox catalysts” (J Med Chem, 2010) come the findings set out here.

The source made the active and inactive calls. The calls are words filed in the database; no cut-off is given here. Bounds are passed on as bounds.

Data set [1] has as its system B-CLL. The data set can be described thus: Cytotoxicity against human B-CLL cells assessed as reduction in cell viability. Type of data set: functional, cell-based.
The next data set deals with K562. Description: Cytotoxicity against human K562 cells assessed as cell viability at 10 uM. Type of data set: functional. As to conditions: read-out: Activity.
In data set [2] the test system is PBMC. Description: Cytotoxicity against human PBMC. Type of data set: cell-based.
Data set [3] deals with B-CLL. Description: Induction of apoptosis in human B-CLL cells assessed as caspase3 activation by […]. Type of data set: functional, cell-based.
The test system of data set [4] is PBMC. Description: Induction of apoptosis in human PBMC cells assessed as caspase3 activation by […]. Type of data set: functional, cell-based.
In data set [5] the test system is B-CLL. The data set can be described thus: Induction of intracellular ROS level in human B-CLL cells by flow cytometry. Type of data set: functional, cell-based. On the technique in general: A flow cytometer gives signals particle by particle.
Data set [6] concerns PBMC. Description: Induction of intracellular ROS level in human PBMC cells by flow cytometry. It is filed as functional, cell-based.
In the next data set the test system is HT-29. Description: Cytotoxicity against human HT-29 cells at 0.3 to 0.625 uM. Type of data set: functional.
For data set [7], the system named is MCF7. Description: Cytotoxicity against human MCF7 cells at 0.3 to 0.625 uM. Type of data set: functional.
Data set [8] deals with A549. Description: Cytotoxicity against human A549 cells at 0.3 to 0.625 uM. Type of data set: functional.
Data set [9] can be described thus: Cytotoxicity against mouse NIH/3T3 cells at 1.25 uM. The note with it: nih3t3, 1.25 µM. Type of data set: cell-based.
The test system of the next data set is HUVEC. Description: Cytotoxicity against HUVEC at 1.25 uM. It is filed as cell-based. As to conditions: human.
Data set [10] in a line: Cytotoxicity against human B-CLL cells assessed as reduction in cell viability at 500 nM relative to untreated control. It is filed as functional.
Data set [11] is described as follows: Cytotoxicity against human B-CLL cells assessed as reduction in cell viability at 1 uM relative to untreated control. It is filed as functional.
Data set [12] relates to A549. The data set can be described thus: Cytotoxicity against human A549 cells at 0.3 uM. It is filed as functional.
Data set [13] relates to MCF7. The data set can be described thus: Cytotoxicity against human MCF7 cells at 0.3 uM. Type of data set: functional.
The subject of data set [14] is B-CLL. The data set can be described thus: Cytotoxicity against human B-CLL cells assessed as reduction in cell viability at 10 uM. It is filed as functional, cell-based.

For `CC1=C([Te]c2ccc(O)cc2)C(=O)c2ccccc2C1=O`, the outcome in the data set on B-CLL [1] was inactive. Besides, the viability at 10 µM in the data set with K562 came to 30%.

As to `O=C1C([Te]c2ccccc2)=C([Te]c2ccccc2)C(=O)c2ccccc21`, the outcome in the data set on B-CLL [1], with B-CLL [3] and in the data set on B-CLL [5] was Active. Further, the viability at 10 µM with K562 came out at 15%. The Activity entry in the data set on PBMC [2] is “Non-toxic”; with HT-29 it was less than 50%; with MCF7 [7], less than 50%; in the data set on A549 [8], less than 50%; in data set [9] it was less than 50%; with HUVEC, less than 50%. Also, the outcome in the data set with PBMC [4] and with PBMC [6] was inactive.

In the case of `CC1=C([Te]c2ccccc2)C(=O)c2ccccc2C1=O`, the result with B-CLL [1] and with B-CLL [5] was Active. The viability at 10 µM in the data set with K562 amounted to 4.1%. Further, the Activity entry in the data set with PBMC [2] is recorded as “Non-toxic”; in data set [9], less than 50%; with HUVEC, less than 50%; with A549 [12] it was less than 50%; in the data set with MCF7 [13], less than 50%. The results for the Ratio in data set [10] and in data set [11] were 3.17 and 5.03, respectively. In addition, in the data set on PBMC [6], the outcome was inactive.

Consider `CCOC(C[Se]C1=C([Se]CC(OCC)OCC)C(=O)c2ccccc2C1=O)OCC`, for which, in the data set with K562, the viability at 10 µM stood at 8.6%.

With `O=C1C([Se]c2ccccc2)=C([Se]c2ccccc2)C(=O)c2c(O)ccc(O)c21`, the result in the data set on B-CLL [1] and with B-CLL [14] was Active. Further, the Activity result in the data set with PBMC [2] was “Toxic”.

For the compound `O=C1C([Se]c2ccccc2)=C([Se]c2ccccc2)C(=O)c2ccccc21`, the result in the data set with B-CLL [1] was Active. Also, the Activity entry with PBMC [2] is “Non-toxic”.

Consider `O=C1C(Sc2ccccc2)=C(Sc2ccccc2)C(=O)c2ccccc21`, for which the result in the data set on B-CLL [1] and in the data set with B-CLL [14] was Active.
